For orientation: IC50 means the concentration that inhibits the measured activity by half. The low end stands for higher potency, the high end for lower potency.

Structures are written as SMILES. Bounds are passed on as bounds.

The target in the test is T1, Protein farnesyltransferase subunit beta/geranylgeranyltransferase type-1 subunit alpha (Saccharomyces cerevisiae (strain ATCC 204508 / S288c), UniProt P22007+P29703).
T1 sequence (P22007 whole entry): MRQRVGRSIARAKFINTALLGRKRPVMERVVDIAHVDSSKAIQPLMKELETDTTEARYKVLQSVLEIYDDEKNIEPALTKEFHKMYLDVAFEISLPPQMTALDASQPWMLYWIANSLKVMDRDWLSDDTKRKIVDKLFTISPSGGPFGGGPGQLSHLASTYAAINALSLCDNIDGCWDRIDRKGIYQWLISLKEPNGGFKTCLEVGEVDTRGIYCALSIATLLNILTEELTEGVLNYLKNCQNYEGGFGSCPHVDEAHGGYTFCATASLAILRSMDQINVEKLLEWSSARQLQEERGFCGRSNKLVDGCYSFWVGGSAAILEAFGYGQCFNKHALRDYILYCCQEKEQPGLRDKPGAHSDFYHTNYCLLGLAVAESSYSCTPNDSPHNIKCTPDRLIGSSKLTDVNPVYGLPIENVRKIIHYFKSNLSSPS
T1 sequence (P29703 whole entry): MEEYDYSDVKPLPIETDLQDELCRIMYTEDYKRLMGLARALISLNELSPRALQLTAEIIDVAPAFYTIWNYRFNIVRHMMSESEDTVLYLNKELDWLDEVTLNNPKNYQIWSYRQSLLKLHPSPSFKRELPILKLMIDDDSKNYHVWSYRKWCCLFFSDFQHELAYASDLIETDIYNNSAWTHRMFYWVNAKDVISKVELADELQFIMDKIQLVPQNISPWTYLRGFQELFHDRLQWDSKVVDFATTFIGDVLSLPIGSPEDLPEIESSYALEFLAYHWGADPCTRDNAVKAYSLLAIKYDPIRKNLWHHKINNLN
Description: Fluorescence-Based PFTase Inhibition Assay. The note with it: pH 7.5; 30 °C. The method, then:
Assays were realized on 96-well plates, prepared with Biomek NKMC and Biomek 3000 from Beckman Coulter and read on a Wallac Victor fluorimeter from PerkinElmer. Per well, 20 μL of farnesyl pyrophosphate (10 μM) was added to 180 μL of a solution containing 2 μL of varied concentrations of tested compounds (dissolved in methanol) and 178 μL of a solution composed by 0.1 mL of partially purified recombinant yeast FTase (2.2mg/mL) and 7.0 mL of Dansyl-GCVLS peptide (in the following buffer: 5.8 mM DTT, 12 mM MgCl2, 12 μM ZnCl2, and 0.09% (w/v) CHAPS, 53 mM Tris/HCl, pH 7.5). Then the fluorescence development was recorded for 15 min (0.7 s per well, 20 repeats) at 30°C with an excitation filter at 340 nm and an emission filter at 486 nm.
Take `C/C=C(/C)C(=O)O[C@H]1[C@H]2[C@H](C)C(=O)O[C@@H]2C[C@@H](C)[C@@H]2C=CC(=O)[C@]21C` [6-O-angeloylprenolin]: the IC50 was 18.8 µM.
The molecule `C=C1C(=O)O[C@H]2C[C@H](C)[C@]3(/C=C/C(C)=O)O[C@@H]3C[C@H]12` [Xanthatin-1,5α-epoxide (5)] gave an IC50 of 100 µM. This IC50 lies about 5.3-fold higher than the previous one.
For `C=C1C(=O)O[C@H]2C[C@H](C)[C@@]3(/C=C/C(C)=O)O[C@H]3C[C@H]12` [Xanthatin-1,5β-epoxide (4)] the value was 500 µM; for `CC(=O)OC(C)/C=C/C1=CC[C@H]2[C@H](C[C@@H]1C)OC(=O)[C@@H]2C` (stereo partly drawn) [2,3-(E)-Dehydro-4-epi-isoxanthanol (9)], 900 µM; for `C=C1C(=O)O[C@H]2C[C@H](C)c3cc(C(C)=O)oc3C[C@H]12` [3,5-Oxyxanthatin (7)], above 1000 µM.
Molecule `C=C1C(=O)O[C@@H]2C[C@H](C)[C@]3(/C=C/C(C)=O)O[C@@H]3C[C@H]12` [8-Epi-xanthatin-1,5α-epoxide] had an IC50 of 58 µM.
In the case of `CC(=O)/C=C/[C@@]12O[C@@H]1C[C@H]1[C@H](C[C@@H]2C)OC(=O)[C@@H]1C` [11β,13-Dihydroxanthatin-1,5α-epoxide (11)] it was 90 µM.
In the case of `CC(O)/C=C/C1=CC[C@H]2[C@H](C[C@@H]1C)OC(=O)[C@@H]2C` (stereo partly drawn) [4,11β,13-Tetrahydroxanthatin (8)] it was above 1000 µM; in that of `C=C1C(=O)O[C@H]2C[C@H](C)C(C(CC(C)O)OC(C)=O)=CC[C@H]12` (stereo partly drawn) [α-Methylene-γ-lactone, 3], above 1000 µM.
For the molecule `CC(=O)OC(C)CC(OC(C)=O)C1=CC[C@H]2[C@H](C[C@@H]1C)OC(=O)[C@@H]2C` (stereo partly drawn) [Acetyl-11β,13-dihydro-4-epi-isoxanthanol (15)], the IC50 came out at 40 µM.
In turn, `C=C1C(=O)O[C@@H]2C[C@H](C)C(/C=C/C(C)=O)=CC[C@H]12` [8-Epi-xanthatin] displayed an IC50 of 64 µM.
For `C=C1C(=O)O[C@@H]2C3C4(C=C[C@@]3(C)C3(C4)C(=O)O[C@@H]4[C@H]5C(C)=CC(=O)[C@H]5[C@@H](C)C[C@H](OC(=O)/C(C)=C\C)[C@H]43)[C@](C)(O)CC[C@@H]12` (stereo partly specified) [Arteminolide C'], inhibition was half-maximal at 0.95 µM (IC50).
`C=C1C(=O)O[C@H]2C[C@H](C)C(/C=C/C(C)=O)=CC[C@H]12` [Xanthatin (2)] gave an IC50 of 100 µM.
For `CC(=O)OC(CC(C)O)C1=CC[C@H]2[C@H](C[C@@H]1C)OC(=O)[C@@H]2C` (stereo partly drawn) [11β,13-Dihydro-4-epi-isoxanthanol (16)] the value was 633 µM; for `C/C=C(/C)C(=O)O[C@H]1C[C@H](C)[C@@H]2C(=O)C=C(C)[C@@H]2[C@H]2OC(=O)C3(CC45C=C[C@]3(C)C4[C@H]3OC(=O)C(C)[C@@H]3CC[C@@]5(C)O)[C@@H]21` (stereo partly specified) [Arteminolide C], 1 µM.
In the case of `C=C1C(=O)O[C@H]2C[C@H](C)C(C(CC(C)OC(C)=O)OC(C)=O)=CC[C@H]12` (stereo partly drawn) [Acetyl-4-epi-isoxanthanol (6)], the IC50 was 40 µM.
For `CC(O)CCC1=CC[C@@H]2C(C)C(=O)O[C@H]2C[C@@H]1C` (stereo partly specified) [4,11,13-Tetrahydroxanthinosin (14)] the value was above 1000 µM.
The molecule `CC(=O)/C=C/[C@]12O[C@H]1C[C@H]1[C@H](C[C@@H]2C)OC(=O)[C@@H]1C` [11β,13-Dihydroxanthatin-1,5β-epoxide (12)] yielded an IC50 of 66 µM.
For `C=C1C(=O)O[C@H]2C[C@H](C)C(C(CC(C)=O)OC(C)=O)=CC[C@H]12` (stereo partly drawn) [α-Methylene-γ-lactone, 1] the value was 150 µM; for `CC(=O)/C=C/C1=CC[C@H]2[C@H](C[C@@H]1C)OC(=O)[C@@H]2C` [11β,13-Dihydroxanthatin (10)], 210 µM; for `CC(=O)CCC1=CC[C@@H]2C(C)C(=O)O[C@H]2C[C@@H]1C` (stereo partly specified) [11,13-Dihydroxanthinosin (13)], 240 µM.

The values are drawn from BindingDB's records for doi:10.3109/14756360903169592 (Ufr Des Sciences Pharmaceutiques Et Ingenierie De La Sante, 2010).
